# Assay results published in patent US7678803B2, “Quinazoline derivatives for the treatment of cancer” (Serenex, Inc., priority 2006, dated 2010).
# System: HSP-90 (heat shock protein 90)
# Test: Determination of affinity for HSP-90 (elution from purine affinity column); further: key: +++: very high; ++: high; +: moderate
# Details: relative binding affinity to HSP-90
# Experimental: Affinity of test compounds for HSP-90 is determined as follows: Protein mixtures obtained from a variety of organ tissues (for example: spleen, liver and lung) are reversibly bound to a purine affinity column to capture purine-binding proteins, especially HSP-90. […] The elution profile of Formula I compounds is determined by 1-dimensional SDS polyacrylamide gel electrophoresis. Gels are stained with a fluorescent stain such as sypro ruby (a highly sensitive fluorescent protein stain that can readily detect less than 1 fmol of total protein, i.e., less than 0.04 ng for a 40 kDa protein) or silver nitrate. The gels are imaged using a standard flat bed gel imager and the amount of protein estimated by densitometry. The percent of HSP-90 protein eluted from the column at each concentration is determined and IC50 values are calculated from these estimates.
row,Compound,Affinity
1,"Cc1cn(-c2ccc3c(N)ncnc3c2Cl)c2c1C(=O)CC(C)(C)C2 [Compound 80, 1-(4-amino-8-chloroquinazolin-7-yl)-3,6,6-trimethyl-6,7-dihydro-1H-indol-4(5H)-one]",++
2,"Cc1cn(-c2ccc3c(N)ncc(/C(N)=N/O)c3c2)c2c1C(=O)CC(C)(C)C2 [Compound 105, (Z)-1-amino-N′-hydroxy-6-(3,6,6-trimethyl-4-oxo-4,5,6,7-tetrahydro-1H-indol-1-yl)isoquinoline-4-carboximidamide]",+++
3,"Cc1nn(-c2ccc3c(N)ncc(C#N)c3c2)c2c1C(=O)CC(C)(C)C2 [Compound 98, 1-amino-6-(3,6,6-trimethyl-4-oxo-4,5,6,7-tetrahydro-1H-indazol-1-yl)isoquinoline-4-carbonitrile]",++
4,"Cc1cn(-c2ccc3c(N)ncnc3c2)c2c1C(=O)CCC2 [Compound 45, 1-(4-aminoquinazolin-7-yl)-3-methyl-6,7-dihydro-1H-indol-4(5H)-one]",++
5,"Cc1cn(-c2ccc3c(N)nc(N)nc3c2)c2c1C(=O)CC(C)(C)C2 [Compound 41, 1-(2,4-diaminoquinazolin-7-yl)-3,6,6-trimethyl-6,7-dihydro-1H-indol-4(5H)-one]",+++
6,"C#CCOc1cc(-n2cc(C)c3c2CC(C)(C)CC3=O)cc2ncnc(N)c12 [Compound 71, 1-(4-amino-5-(prop-2-ynyloxy)quinazolin-7-yl)-3,6,6-trimethyl-6,7-dihydro-1H-indol-4(5H)-one]",+
7,"CCCCOc1c(-n2cc(C)c3c2CC(C)(C)CC3=O)ccc2c(N)ncnc12 [Compound 53, 1-(4-amino-8-butoxyquinazolin-7-yl)-3,6,6-trimethyl-6,7-dihydro-1H-indol-4(5H)-one]",+++
8,"Cc1cn(-c2ccc3c(N)ncnc3c2O)c2c1C(=O)CC(C)(C)C2 [Compound 68, 1-(4-amino-8-hydroxyquinazolin-7-yl)-3,6,6-trimethyl-6,7-dihydro-1H-indol-4(5H)-one]",+++
9,"Cc1cn(-c2ccc3c(N)ncnc3c2SCCNC(=O)OC(C)(C)C)c2c1C(=O)CC(C)(C)C2 [Compound 77, tert-butyl 2-(4-amino-7-(3,6,6-trimethyl-4-oxo-4,5,6,7-tetrahydro-1H-indol-1-yl)quinazolin-8-ylthio)ethylcarbamate]",++
10,"COCCNc1c(-n2cc(C)c3c2CC(C)(C)CC3=O)ccc2c(N)ncnc12 [Compound 56, 1-(4-amino-8-(2-methoxyethylamino)quinazolin-7-yl)-3,6,6-trimethyl-6,7-dihydro-1H-indol-4(5H)-one]",+++
11,"Cc1nn(-c2ccc3c(N)ncnc3c2)c2c1C(=O)CCC2 [Compound 88, 1-(4-aminoquinazolin-7-yl)-3-methyl-6,7-dihydro-1H-indazol-4(5H)-one]",+
12,"Cc1cn(-c2cc(F)c3c(N)ncnc3c2)c2c1C(=O)CC(C)(C)C2 [Compound 63, 1-(4-amino-5-fluoroquinazolin-7-yl)-3,6,6-trimethyl-6,7-dihydro-1H-indol-4(5H)-one]",+
13,"Cc1nc(N)c2ccc(-n3cc(C)c4c3CC(C)(C)CC4=O)cc2n1 [Compound 40, 1-(4-amino-2-methylquinazolin-7-yl)-3,6,6-trimethyl-6,7-dihydro-1H-indol-4(5H)-one]",+++
14,"Cc1cn(-c2ccc3c(N)ncnc3c2SCCO)c2c1C(=O)CC(C)(C)C2 [Compound 93, 1-(4-amino-8-(2-hydroxyethylthio)quinazolin-7-yl)-3,6,6-trimethyl-6,7-dihydro-1H-indol-4(5H)-one]",+++
15,"CC1(C)CC(=O)c2c(C(F)(F)F)nn(-c3ccc4c(N)ncc(Br)c4c3)c2C1 [Compound 46, 1-(1-amino-4-bromoisoquinolin-6-yl)-6,6-dimethyl-3-(trifluoromethyl)-6,7-dihydro-1H-indazol-4(5H)-one]",+
16,"Cc1nn(-c2ccc3c(N)ncc(C(N)=O)c3c2)c2c1C(=O)CC(C)(C)C2 [Compound 99, 1-amino-6-(3,6,6-trimethyl-4-oxo-4,5,6,7-tetrahydro-1H-indazol-1-yl)isoquinoline-4-carboxamide]",++
